Biological target: recombinant human SAE enzyme (Homo sapiens (Human), UniProt Q9UBT2)
Assay: SAE HTRF enzyme assay
Format: biochemical
Settings: for Percent Inhibition: SAE inhibition at compound concentration 0.111 μM; for IC50: SAE inhibition, class symbols, legend in nM
Procedure, shortened: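 0.11 nM SAE incubated with 0.5 μM ATP, 0.01 μM Ubc9-GST and 0.125 μM Sumo-Flag in HEPES pH 7.5, MgCl2, GSH, BSA, ±inhibitor, 105 min at 24° C. EDTA stop; Eu-cryptate anti-Flag/XL-APC anti-GST HTRF read after 2 h. Values given as single-concentration % inhibition or IC50.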

Chain of recombinant human SAE enzyme (Q9UBT2 whole entry): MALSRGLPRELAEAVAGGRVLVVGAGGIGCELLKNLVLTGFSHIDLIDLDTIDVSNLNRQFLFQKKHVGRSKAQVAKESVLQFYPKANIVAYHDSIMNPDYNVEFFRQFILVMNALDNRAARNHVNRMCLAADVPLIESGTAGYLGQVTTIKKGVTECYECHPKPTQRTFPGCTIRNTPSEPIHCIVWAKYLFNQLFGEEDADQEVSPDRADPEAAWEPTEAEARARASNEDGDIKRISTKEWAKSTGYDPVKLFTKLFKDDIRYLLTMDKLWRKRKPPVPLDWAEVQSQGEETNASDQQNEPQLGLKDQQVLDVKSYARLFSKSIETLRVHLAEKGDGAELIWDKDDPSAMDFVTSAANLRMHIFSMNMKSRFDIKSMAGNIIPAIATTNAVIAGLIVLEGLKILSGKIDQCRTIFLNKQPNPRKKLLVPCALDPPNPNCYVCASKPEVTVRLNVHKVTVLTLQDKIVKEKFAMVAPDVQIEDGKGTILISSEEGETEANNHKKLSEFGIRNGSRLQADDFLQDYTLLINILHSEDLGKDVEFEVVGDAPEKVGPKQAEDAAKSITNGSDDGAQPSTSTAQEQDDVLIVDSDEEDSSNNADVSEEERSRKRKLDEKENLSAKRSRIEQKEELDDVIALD
Chain of recombinant human SAE enzyme (Q9UBE0 whole entry partner): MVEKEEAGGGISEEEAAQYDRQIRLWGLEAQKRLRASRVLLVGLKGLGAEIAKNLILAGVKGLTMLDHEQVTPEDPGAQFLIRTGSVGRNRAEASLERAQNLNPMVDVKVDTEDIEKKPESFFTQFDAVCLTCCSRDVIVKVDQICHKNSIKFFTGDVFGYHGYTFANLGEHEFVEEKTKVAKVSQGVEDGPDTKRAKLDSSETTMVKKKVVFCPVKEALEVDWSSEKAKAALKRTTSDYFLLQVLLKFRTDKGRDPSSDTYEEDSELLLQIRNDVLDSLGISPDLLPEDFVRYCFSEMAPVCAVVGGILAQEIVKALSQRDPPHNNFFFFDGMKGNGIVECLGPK

Row | Structure (SMILES) | Percent Inhibition | IC50
1 | Cc1sc(C(=O)c2cncnc2N[C@@H]2C[C@H](COS(N)(=O)=O)[C@@H](O)C2)cc1[C@@H]1OCCc2oc(Cl)cc21 (mixture of isomers) [I-298, [(1R,2S,4R)-4-{[5-({4-[(4R)-2-chloro-6,7-dihydro-4H-furo[3,2-c]pyran-4-yl]-5-methyl-2-thienyl}carbonyl)pyrimidin-4-yl]amino}-2-hydroxycyclopentyl]methyl sulfamate and [(1R,2S,4R)-4-{[5-({4-[(4S)-2-chloro-6,7-dihydro-4H-furo[3,2-c]pyran-4-yl]-5-methyl-2-thienyl}carbonyl)pyrimidin-4-yl]amino}-2-hydroxycyclopentyl]methyl sulfamate] | 96% | < 10 nM
2 | NS(=O)(=O)OC[C@H]1C[C@@H](Nc2ncncc2C(=O)c2cc([C@H]3OCCc4c(Cl)cccc43)cs2)C[C@@H]1O (mixture of isomers) [I-301, [(1R,2S,4R)-4-{[5-({4-[(1R)-5-chloro-3,4-dihydro-1H-isochromen-1-yl]-2-thienyl}carbonyl)pyrimidin-4-yl]amino}-2-hydroxycyclopentyl]methyl sulfamate and [(1R,2S,4R)-4-{[5-({4-[(1S)-5-chloro-3,4-dihydro-1H-isochromen-1-yl]-2-thienyl}carbonyl)pyrimidin-4-yl]amino}-2-hydroxycyclopentyl]methyl sulfamate] | 99% | < 10 nM
3 | NS(=O)(=O)OC[C@H]1C[C@@H](Nc2ncncc2C(=O)c2cc([C@H]3NCCc4ccccc43)c(Cl)s2)[C@H](O)[C@@H]1O (mixture of isomers) [I-302, [(1R,2R,3S,4R)-4-{[5-({5-chloro-4-[(1S)-1,2,3,4-tetrahydroisoquinolin-1-yl]-2-thienyl}carbonyl)pyrimidin-4-yl]amino}-2,3-dihydroxycyclopentyl]methyl sulfamate and [(1R,2R,3S,4R)-4-{[5-({5-chloro-4-[(1R)-1,2,3,4-tetrahydroisoquinolin-1-yl]-2-thienyl}carbonyl)pyrimidin-4-yl]amino}-2,3-dihydroxycyclopentyl]methyl sulfamate] | 100% | < 10 nM
4 | Cc1sc(C(=O)c2cncnc2N[C@@H]2C[C@H](COS(N)(=O)=O)[C@@H](O)C2)cc1[C@@H]1OCCc2ccc(Cl)c(F)c21 (mixture of isomers) [I-303, [(1R,2S,4R)-4-{[5-({4-[(1R)-7-chloro-8-fluoro-3,4-dihydro-1H-isochromen-1-yl]-5-methyl-2-thienyl}carbonyl)pyrimidin-4-yl]amino}-2-hydroxycyclopentyl]methyl sulfamate and [(1R,2S,4R)-4-{[5-({4-[(1S)-7-chloro-8-fluoro-3,4-dihydro-1H-isochromen-1-yl]-5-methyl-2-thienyl}carbonyl)pyrimidin-4-yl]amino}-2-hydroxycyclopentyl]methyl sulfamate] | 99% | < 10 nM
5 | CN1CCc2ccc(Cl)cc2[C@H]1c1csc(C(=O)c2cncnc2N[C@@H]2C[C@H](COS(N)(=O)=O)[C@@H](O)C2)c1 (mixture of isomers) [I-307, [(1R,2S,4R)-4-{[5-({4-[(1R)-7-chloro-2-methyl-1,2,3,4-tetrahydroisoquinolin-1-yl]-2-thienyl}carbonyl)pyrimidin-4-yl]amino}-2-hydroxycyclopentyl]methyl sulfamate and [(1R,2S,4R)-4-{[5-({4-[(1S)-7-chloro-2-methyl-1,2,3,4-tetrahydroisoquinolin-1-yl]-2-thienyl}carbonyl)pyrimidin-4-yl]amino}-2-hydroxycyclopentyl]methyl sulfamate] | 95% | < 10 nM
6 | Cc1cn2c(n1)[C@H](c1cc(C(=O)c3cncnc3N[C@@H]3C[C@H](COS(N)(=O)=O)[C@@H](O)C3)sc1C)OCC2 (mixture of isomers) [I-309, [(1R,2S,4R)-2-hydroxy-4-{[5-({5-methyl-4-[(8S)-2-methyl-5,6-dihydro-8H-imidazo[2,1-c][1,4]oxazin-8-yl]-2-thienyl}carbonyl)pyrimidin-4-yl]amino}cyclopentyl]methyl sulfamate and [(1R,2S,4R)-2-hydroxy-4-{[5-({5-methyl-4-[(8R)-2-methyl-5,6-dihydro-8H-imidazo[2,1-c][1,4]oxazin-8-yl]-2-thienyl}carbonyl)pyrimidin-4-yl]amino}cyclopentyl]methyl sulfamate] | 98% | < 10 nM
7 | Cc1sc(C(=O)c2cncnc2N[C@@H]2C[C@H](COS(N)(=O)=O)[C@@H](O)C2)cc1[C@@H]1OCCc2ccc(C#N)cc21.Cc1sc(C(=O)c2cncnc2N[C@@H]2C[C@H](COS(N)(=O)=O)[C@@H](O)C2)cc1[C@H]1OCCc2ccc(C#N)cc21 (mixture of isomers) [I-313, [(1R,2S,4R)-4-{[5-({4-[(1R)-7-cyano-3,4-dihydro-1H-isochromen-1-yl]-5-methyl-2-thienyl}carbonyl)pyrimidin-4-yl]amino}-2-hydroxycyclopentyl]methyl sulfamate and [(1R,2S,4R)-4-{[5-({4-[(1S)-7-cyano-3,4-dihydro-1H-isochromen-1-yl]-5-methyl-2-thienyl}carbonyl)pyrimidin-4-yl]amino}-2-hydroxycyclopentyl]methyl sulfamate] | 94% | < 10 nM
8 | NS(=O)(=O)OC[C@H]1C[C@@H](Nc2ncncc2C(=O)c2cc([C@@H]3OCCCc4ccc(Cl)cc43)cs2)C[C@@H]1O (mixture of isomers) [I-314, [(1R,2S,4R)-4-{[5-({4-[(1R)-8-chloro-1,3,4,5-tetrahydro-2-benzoxepin-1-yl]-2-thienyl}carbonyl)pyrimidin-4-yl]amino}-2-hydroxycyclopentyl]methyl sulfamate and [(1R,2S,4R)-4-{[5-({4-[(1S)-8-chloro-1,3,4,5-tetrahydro-2-benzoxepin-1-yl]-2-thienyl}carbonyl)pyrimidin-4-yl]amino}-2-hydroxycyclopentyl]methyl sulfamate] | 95% | < 10 nM
9 | Cc1sc(C(=O)c2cncnc2N[C@@H]2C[C@H](COS(N)(=O)=O)[C@@H](O)C2)cc1[C@@H]1OCCc2sc(C(F)(F)F)nc21 (mixture of isomers) [I-315, [(1R,2S,4R)-2-hydroxy-4-{[5-({5-methyl-4-[(4S)-2-(trifluoromethyl)-6,7-dihydro-4H-pyrano[3,4-d][1,3]thiazol-4-yl]-2-thienyl}carbonyl)pyrimidin-4-yl]amino}cyclopentyl]methyl sulfamate and [(1R,2S,4R)-2-hydroxy-4-{[5-({5-methyl-4-[(4R)-2-(trifluoromethyl)-6,7-dihydro-4H-pyrano[3,4-d][1,3]thiazol-4-yl]-2-thienyl}carbonyl)pyrimidin-4-yl]amino}cyclopentyl]methyl sulfamate] | 97% | < 10 nM
10 | Cc1sc(C(=O)c2cncnc2N[C@@H]2C[C@H](COS(N)(=O)=O)[C@@H](O)C2)cc1[C@@H]1OCCc2cnc(Cl)cc21 (mixture of isomers) [I-316, [(1R,2S,4R)-4-{[5-({4-[(1R)-7-chloro-3,4-dihydro-1H-pyrano[4,3-c]pyridin-1-yl]-5-methyl-2-thienyl}carbonyl)pyrimidin-4-yl]amino}-2-hydroxycyclopentyl]methyl sulfamate and [(1R,2S,4R)-4-{[5-({4-[(1S)-7-chloro-3,4-dihydro-1H-pyrano[4,3-c]pyridin-1-yl]-5-methyl-2-thienyl}carbonyl)pyrimidin-4-yl]amino}-2-hydroxycyclopentyl]methyl sulfamate] | 94% | < 10 nM

— patent US10780090B2, “Heteroaryl compounds useful as inhibitors of SUMO activating enzyme” (Millennium Pharmaceuticals, Inc., priority 2014, dated 2020)
